Assay results as given in patent publication US8343475B2, “Small cationic antimicrobial peptides” (priority 2006, dated 2013).
In brackets after ≈: the same amount, converted by molar mass. Residues, ends and D or L forms follow the SMILES beside them.

Key:
[1] = system: multidrug resistant Brazilian clinical isolates of P. aeruginosa; format: cell-based, Pseudomonas aeruginosa
Method: (§1) Minimal inhibitory concentration (MIC) determination. The MIC of the peptides were measured using a modified broth microdilution method in Mueller Hinton (MH) medium (Wu M, Hancock R E W. 1999. Interaction of the cyclic antimicrobial cationic peptide bactenecin with the outer and cytoplasmic membrane. J Biol Chem 274, 29-35). Briefly, the peptides were dissolved and stored in glass vials. The assay was performed in sterile 96-well polypropylene microtitre plates were used. Serial dilutions of the peptides to be assayed were performed in 0.01% acetic acid (Fisher) containing 0.2% bovine serum albumin (Boehringer Mannheim GmbH) at 10× the desired final concentration. Ten microlitres of the 10× peptides were added to each well of a 96-well polypropylene plate containing 90 μl of MH media per well. Bacteria were added to the plate from an overnight culture at 2-7×10^5 colony forming units/ml and incubated over night at 37° C. The MIC was taken as the concentration at which no growth was observed.
(§2) All peptides derived from the 1st, 2nd, and 3rd quartiles were further evaluated for their antibacterial activities against several highly antibitoic resistant pathogens (Table 3). These included clinical isolates of MRSA, ESBL E. cloacae, and multidrug resistant Pseudomonas strains including Brazilian clinical isolates of P. aeruginosa that are resistant to meropenem, ceftazidime, piperacillin/tazobactam, ciprofloxacin, cefepime and polymyxin B, and the Liverpool Epidemic Strains. […] Such results characterize the developed peptides as excellent antibiotic candidates, providing new means for treating most dangerous and severe forms of human infections.

[2] = system: Liverpool Epidemic Strains; format: cell-based, Pseudomonas aeruginosa
Method: as §1, §2

[3] = system: MCP-1 release by human PBMC; experiment: Chemokine induction in PBMC (capture ELISA); format: cell-based; conditions: background (204) subtracted
Method in brief: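 Heparinized blood from healthy volunteers; Ficoll-isolated human PBMC (7.5×10^5) treated with peptides at 20 or 100 μg/ml for 24 hours at 37° C, 5% CO2. Cell-free supernatants assayed for MCP-1 by capture ELISA.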

[4] = system: clinical isolates of MRSA; format: cell-based, Staphylococcus aureus
Method: as §1, §2

[5] = system: MCP-3 release by human PBMC; experiment: Chemokine induction in PBMC (capture ELISA); format: cell-based; conditions: background (6) subtracted
Method in brief: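 Human PBMC from healthy donors (Ficoll-isolated), 7.5×10^5 cells at 0.75–1×10^6 cells/ml, treated with peptides at 20 or 100 μg/ml for 24 h at 37° C, 5% CO2. MCP-3 in cell-free supernatants measured by capture ELISA.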

[6] = system: CXCL1 (Gro-α) release by human PBMC; experiment: Chemokine induction in PBMC (capture ELISA); format: cell-based; conditions: background (196) subtracted
Method in brief: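 Human PBMC from healthy donors' heparinised blood (Ficoll), 7.5×10^5 cells treated with 20 or 100 μg/ml peptide for 24 h at 37° C, 5% CO2. Cell-free supernatants assayed for CXCL1 by capture ELISA.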

ESBL E. cloacae = format: cell-based, Enterobacter cloacae
Method: as §1, §2

[7] = system: Enterococcus faecalis ATCC29212; format: cell-based; conditions: ATCC29212
Method in brief: (§3)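 Modified microdilution, MH broth, polypropylene wells. Peptide dilutions (10× stocks in 0.01% HOAc/0.2% BSA) mixed 1:10 with medium; cells 2-7×10^5 CFU/ml; 37° C overnight; endpoint no growth.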

[8] = system: Staphylococcus aureus ATCC25923; format: cell-based; conditions: ATCC25923
Method in brief: as §3

[9] = system: multidrug resistant Pseudomonas maltophilia ATCC13637; format: cell-based
Method: as §1
(§4) The selected peptides were synthesized and assayed against several major antibiotic-resistant pathogens. Initially, the peptides were screened against the laboratory strain of P. aeruginosa PAO1 to compare the results with the training data. […] The antibacterial activity in the form of minimal inhibitory concentration (MIC) of the other studied peptides was assessed in greater depth (Table 9) against many highly antibiotic resistanct pathogens.

[10] = system: ESBL E. coli clinical strain 64771; format: cell-based; conditions: ESBL clinical strain 64771
Method: as §1, §4

[11] = system: ESBL Klebsiella pneumonia clinical strain 63575; format: cell-based
Method: as §1, §4

[12] = system: Pseudomonas aeruginosa PAO1 strain H103; format: cell-based; conditions: for antimicrobial activity against P. aeruginosa PAO1 (in words): laboratory strain P. aeruginosa PAO1
Method in brief: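 Modified broth microdilution MIC in Mueller Hinton medium, peptides diluted in 0.01% acetic acid/0.2% BSA, polypropylene plates. Inoculum 2-7×10^5 CFU/ml, overnight at 37 °C; MIC is the lowest concentration with no visible growth.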

Row | SMILES | MIC [1] [µM] | MIC [2] [µM] | MIC [4] [µM] | MIC (ESBL E. cloacae) [µM] | MIC [7] [µM] | MIC [8] [µM] | MIC [9] [µM] | MIC [10] [µM] | MIC [11] [µM] | MIC against P. aeruginosa PAO1 [12] [µM] | Chemokine induction MCP-1 ([3]; 20 μg/ml peptide) [pg/mL] | Chemokine induction MCP-1 ([3]; 100 μg/ml peptide) [pg/mL] | Chemokine induction MCP-3 ([5]; 20 μg/ml peptide) [pg/mL] | Chemokine induction MCP-3 ([5]; 100 μg/ml peptide) [pg/mL] | Chemokine induction Gro-α ([6]; 20 μg/ml peptide) [pg/mL] | Chemokine induction Gro-α ([6]; 100 μg/ml peptide) [pg/mL] | antimicrobial activity against P. aeruginosa PAO1 (in words) [12]
1 | N=C(N)NCCC[C@H](NC(=O)[C@H](Cc1c[nH]c2ccccc12)NC(=O)[C@H](CCCCN)NC(=O)[C@H](CCCCN)NC(=O)[C@H](Cc1c[nH]c2ccccc12)NC(=O)[C@H](Cc1c[nH]c2ccccc12)NC(=O)[C@H](CCCNC(=N)N)NC(=O)[C@H](CCCCN)NC(=O)[C@@H](N)Cc1c[nH]c2ccccc12)C(N)=O [HHC45, WKRWWKKWR] (H-WKRWWKKWR-NH2; N-terminus assumed) | 46 (≈ 67.1 µg/mL) | 6 (≈ 8.75 µg/mL) | 6 (≈ 8.75 µg/mL) | 93 (≈ 136 µg/mL) | 93 (≈ 136 µg/mL) | 68 (≈ 99.2 µg/mL) | 1.4 (≈ 2.04 µg/mL) | 3 (≈ 4.38 µg/mL) | 46 (≈ 67.1 µg/mL) | – | -9 | 161 | -2 | -2 | -15 | -32 | –
2 | CC[C@H](C)[C@H](NC(=O)[C@H](C)N)C(=O)N[C@@H](CCCNC(=N)N)C(=O)N[C@@H](CCCNC(=N)N)C(=O)N[C@@H](Cc1c[nH]c2ccccc12)C(=O)N[C@@H](CCCNC(=N)N)C(=O)N[C@H](C(=O)N[C@@H](CCCNC(=N)N)C(=O)N[C@@H](CCCCN)C(N)=O)[C@@H](C)CC [HHC142, AIRRWRIRK] (H-AIRRWRIRK-NH2; N-terminus assumed) | >217 | 217 (≈ 272 µg/mL) | 54 (≈ 67.7 µg/mL) | 108 (≈ 135 µg/mL) | >217 | 54 (≈ 67.7 µg/mL) | 108 (≈ 135 µg/mL) | 108 (≈ 135 µg/mL) | >217 | – | 67 | -16 | 1 | 0 | 59 | 22 | did not return any generally active substances
3 | CC[C@H](C)[C@H](NC(=O)[C@H](CCCCN)NC(=O)[C@H](CC(C)C)NC(=O)[C@@H](NC(=O)[C@@H](N)C(C)C)C(C)C)C(=O)N[C@H](C(=O)N[C@@H](CCCNC(=N)N)C(=O)N[C@@H](CCCNC(=N)N)C(=O)N[C@@H](Cc1ccccc1)C(N)=O)C(C)C [HHC148, VVLKIVRRF] (H-VVLKIVRRF-NH2; N-terminus assumed) | >241 | 241 (≈ 272 µg/mL) | 241 (≈ 272 µg/mL) | 241 (≈ 272 µg/mL) | 241 (≈ 272 µg/mL) | 241 (≈ 272 µg/mL) | 60 (≈ 67.7 µg/mL) | 241 (≈ 272 µg/mL) | >241 | – | 25 | 210 | 1 | 3 | 55 | 60 | did not return any generally active substances

Further lines, with some results ahead:

Row | MIC [1] [µM] | MIC [2] [µM] | MIC [4] [µM] | MIC (ESBL E. cloacae) [µM] | MIC [7] [µM] | MIC [8] [µM] | MIC [9] [µM] | MIC [10] [µM] | MIC [11] [µM] | MIC against P. aeruginosa PAO1 [12] [µM] | SMILES | Chemokine induction MCP-1 ([3]; 20 μg/ml peptide) [pg/mL] | Chemokine induction MCP-1 ([3]; 100 μg/ml peptide) [pg/mL] | Chemokine induction MCP-3 ([5]; 20 μg/ml peptide) [pg/mL] | Chemokine induction MCP-3 ([5]; 100 μg/ml peptide) [pg/mL] | Chemokine induction Gro-α ([6]; 20 μg/ml peptide) [pg/mL] | Chemokine induction Gro-α ([6]; 100 μg/ml peptide) [pg/mL] | antimicrobial activity against P. aeruginosa PAO1 (in words) [12]
4 | 46 (≈ 67.1 µg/mL) | 6 (≈ 8.75 µg/mL) | 39 (≈ 56.9 µg/mL) | 23 (≈ 33.6 µg/mL) | 93 (≈ 136 µg/mL) | 1.4 (≈ 2.04 µg/mL) | 1.4 (≈ 2.04 µg/mL) | 3 (≈ 4.38 µg/mL) | 46 (≈ 67.1 µg/mL) | – | N=C(N)NCCC[C@H](NC(=O)[C@H](CCCNC(=N)N)NC(=O)[C@H](CCCCN)NC(=O)[C@H](Cc1c[nH]c2ccccc12)NC(=O)[C@H](Cc1c[nH]c2ccccc12)NC(=O)[C@H](CCCCN)NC(=O)[C@H](CCCCN)NC(=O)[C@@H](N)Cc1c[nH]c2ccccc12)C(=O)N[C@@H](Cc1c[nH]c2ccccc12)C(N)=O [HHC48, WKKWWKRRW] (H-WKKWWKRRW-NH2; N-terminus assumed) | 2 | 12 | -1 | -1 | -8 | -10 | –
5 | 50 (≈ 67.4 µg/mL) | 6 (≈ 8.09 µg/mL) | 6 (≈ 8.09 µg/mL) | 13 (≈ 17.5 µg/mL) | 50 (≈ 67.4 µg/mL) | 6 (≈ 8.09 µg/mL) | 3 (≈ 4.04 µg/mL) | 6 (≈ 8.09 µg/mL) | 50 (≈ 67.4 µg/mL) | 4 to 12 | CC[C@H](C)[C@H](NC(=O)[C@H](Cc1c[nH]c2ccccc12)NC(=O)[C@H](Cc1c[nH]c2ccccc12)NC(=O)[C@H](CCCCN)NC(=O)[C@H](CC(C)C)NC(=O)[C@H](CCCNC(=N)N)NC(=O)[C@H](CCCCN)NC(=O)[C@@H](N)CCCNC(=N)N)C(=O)N[C@@H](Cc1ccc(O)cc1)C(N)=O [HHC66, RKRLKWWIY] (H-RKRLKWWIY-NH2; N-terminus assumed) | 351 | 355 | 0 | 0 | -12 | -23 | –
6 | 24 (≈ 33.7 µg/mL) | 3 (≈ 4.21 µg/mL) | 3 (≈ 4.21 µg/mL) | 6 (≈ 8.43 µg/mL) | 24 (≈ 33.7 µg/mL) | 3 (≈ 4.21 µg/mL) | 1.5 (≈ 2.11 µg/mL) | 12 (≈ 16.9 µg/mL) | 97 (≈ 136 µg/mL) | 4 to 12 | CC[C@H](C)[C@H](NC(=O)[C@H](CCCCN)NC(=O)[C@H](Cc1c[nH]c2ccccc12)NC(=O)[C@@H](N)CCCCN)C(=O)N[C@@H](Cc1ccccc1)C(=O)N[C@@H](CCCNC(=N)N)C(=O)N[C@@H](CCCNC(=N)N)C(=O)N[C@@H](Cc1c[nH]c2ccccc12)C(=O)N[C@@H](Cc1c[nH]c2ccccc12)C(N)=O [HHC71, KWKIFRRWW] (H-KWKIFRRWW-NH2; N-terminus assumed) | -6 | 99 | 0 | 2 | -17 | 1 | –
